What is called IC50 is the midpoint of a concentration-inhibition curve. The term Ki denotes the dissociation constant of the complex between target and ligand, obtained from inhibition or displacement. A low value points to a stronger hold on the target.

IC50 and Ki data for twelve compounds are collected here from ChEMBL document CHEMBL1777693, “New halogenated phenylcoumarins as tyrosinase inhibitors” (Bioorg Med Chem Lett, 2011).

Each structure is given as a SMILES string. Some results are limits rather than exact numbers.

Test [1] deals with T1, Tyrosinase (Agaricus bisporus, UniProt O42713).
T1 sequence (O42713 whole entry): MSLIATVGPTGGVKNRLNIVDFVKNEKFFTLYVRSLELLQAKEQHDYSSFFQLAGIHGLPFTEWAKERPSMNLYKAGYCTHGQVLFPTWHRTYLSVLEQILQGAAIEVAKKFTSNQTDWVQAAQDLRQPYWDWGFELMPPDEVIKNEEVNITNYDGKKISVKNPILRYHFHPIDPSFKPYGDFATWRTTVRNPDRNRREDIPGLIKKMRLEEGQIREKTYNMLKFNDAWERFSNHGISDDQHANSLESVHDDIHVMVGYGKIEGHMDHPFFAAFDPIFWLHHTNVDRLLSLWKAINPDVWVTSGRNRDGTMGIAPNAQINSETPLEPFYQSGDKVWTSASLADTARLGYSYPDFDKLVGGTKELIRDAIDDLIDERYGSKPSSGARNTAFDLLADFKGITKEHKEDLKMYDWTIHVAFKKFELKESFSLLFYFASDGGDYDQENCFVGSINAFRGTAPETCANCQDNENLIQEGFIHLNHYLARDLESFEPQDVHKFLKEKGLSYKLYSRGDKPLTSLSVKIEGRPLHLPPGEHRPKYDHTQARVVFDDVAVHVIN
Nature of the test: Inhibition of mushroom tyrosinase using L-3,4- dihydroxyphenylalanine as substrate measured for 5 mins by spectrophotometric analysis.

Test [2] deals with T2, Tyrosinase (Homo sapiens, UniProt P14679).
T2 sequence (P14679 whole entry): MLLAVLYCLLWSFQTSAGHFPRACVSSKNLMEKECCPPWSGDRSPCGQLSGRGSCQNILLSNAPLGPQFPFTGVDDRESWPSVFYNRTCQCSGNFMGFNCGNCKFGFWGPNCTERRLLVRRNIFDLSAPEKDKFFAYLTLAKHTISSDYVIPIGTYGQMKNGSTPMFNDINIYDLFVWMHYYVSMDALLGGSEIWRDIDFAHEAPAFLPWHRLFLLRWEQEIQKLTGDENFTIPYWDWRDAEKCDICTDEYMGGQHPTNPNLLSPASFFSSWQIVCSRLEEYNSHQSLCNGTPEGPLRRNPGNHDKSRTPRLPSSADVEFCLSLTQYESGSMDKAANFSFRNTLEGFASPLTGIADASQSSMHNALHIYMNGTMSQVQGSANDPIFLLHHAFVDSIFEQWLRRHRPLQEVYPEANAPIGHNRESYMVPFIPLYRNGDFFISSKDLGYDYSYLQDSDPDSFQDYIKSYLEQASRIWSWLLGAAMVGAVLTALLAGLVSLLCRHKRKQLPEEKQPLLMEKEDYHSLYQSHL
Nature of the test: Inhibition of tyrosinase.

Test [3] deals with T1, Tyrosinase. Nature of the test: Non-competitive inhibition of mushroom tyrosinase using L-3,4- dihydroxyphenylalanine as substrate by Lineweaver-Burk double reciprocal plot analysis.

On Tyrosinase [1], `O=c1oc2c(O)cc(Br)cc2cc1-c1ccccc1` registered an IC50 of 302 µM.
Regarding `O=c1oc2cc(O)ccc2cc1-c1ccccc1`, at Tyrosinase [2], the IC50 was > 10000 µM.
`COc1cc(Br)cc2cc(-c3ccccc3)c(=O)oc12`: the IC50 against Tyrosinase [1] is > 5000 µM.
Still for that read-out and setting: then `O=c1oc2c(O)cccc2cc1-c1ccccc1`, with > 5000 µM.
The compound `O=c1oc2c(O)cc(Br)cc2cc1-c1ccc(O)cc1` came in with a Ki on Tyrosinase [3] of 189 µM. On Tyrosinase [1], this compound displayed an IC50 of 215 µM.
As to `Oc1ccc(/C=C/c2cc(O)cc(O)c2)cc1` [RESVERATROL], inhibition against Tyrosinase [2] was half-maximal at 3680 µM (IC50).
On to `CCOc1cccc2cc(-c3ccc(OC)cc3)c(=O)oc12`, for which the IC50 on Tyrosinase [1] was > 5000 µM.
`COc1ccc(-c2cc3cc(Br)cc(OC)c3oc2=O)cc1` displayed an IC50 against Tyrosinase [1] of 1360 µM.
Consider `O=c1oc2cc(O)ccc2cc1-c1cc(O)cc(O)c1`, for which the IC50 at Tyrosinase [2] is > 10000 µM.
Same read-out and setting: then `O=c1ccc2ccc(O)cc2o1` [UMBELLIFERONE], with 420 µM.
Take `O=c1oc2c(O)cccc2cc1-c1ccc(O)cc1`: on Tyrosinase [1], the IC50 was 1300 µM.
The same measure, in the same setting: then `CCOc1cccc2cc(-c3ccccc3)c(=O)oc12`, with 2070 µM.
